What was measured:
tau protein = target: T1, tau protein (Homo sapiens, UniProt P10636); assay: Tau intrinsic fluorescence quenching assay; assay type: binding; settings: tau 5 μM, compound 250 nM to 25 μM; for Kd: PBS pH 7.4, read-out: One site binding saturation fit Kd with tau
T1 construct: the full-length tau plasmid construct was transformed into E. coli, BL21 strain; inferred from the Ni-NTA purification; made in house; host or cells: E. coli BL21
Description: Tau protein was expressed and purified from E. coli as per known procedures. Briefly, the full-length tau plasmid construct was transformed into E. coli, BL21 strain and cultured in LB broth containing ampicillin ([…]) and chloramphenicol (50 μM) at 37° C. with continuous shaking at 180 rpm overnight. Then 1% of primary culture was transferred to 1 L of LB broth with antibiotics and incubated until it reaches OD of 0.6. The culture was induced with 1 mM IPTG and further cultured for 4 h. Cells were pelleted by centrifugation (7000 rpm) at 4° C. and resuspended in 50 mM phosphate buffer (0.3 M NaCl, 5 mM imidazole and 1 mM of PMSF, pH 8) and boiled to precipitate unwanted proteins for 10-15 min with intermittent agitation. The supernatant containing tau protein was collected and further purified by Ni-NTA affinity column chromatography. The purified tau protein was quantified by Bradford assay, characterised by SDS-PAGE and stored at −80° C. until further use.
Tau was dissolved in PBS buffer pH 7.4 to make 5 μM and titrated with small molecules from 250 nM to 25 μM concentration and fluorescence spectra was recorded by exiting at 274 nm. The emission spectra were plotted and analysed using Origin (Pro), Version 2022 and GraphPad Prism 9.4.0, fitted with one site binding saturation equation to find Kd. Further fluorescence quenching was fitted with Stern-Volmer equation to determine KSV.
The binding of small molecules with tau protein was monitored using tau intrinsic fluorescence spectral changes. […] The change in fluorescence intensity was fitted with one site binding saturation model to determine the Kd values. […] The KSV values were obtained from the Stern-Volmer equation to further quantify the extent of binding. […] This further emphasized the significance of the skeletal template of the modulators for tau interaction, rather than individual substituted aromatic amino acids.

[1] = Steady state fluorescence Zn titration (Stern-Volmer fit); assay type: binding; settings: for Stern-Volmer binding constant (KSV): Table 1, with Zn, factor 10^4; for Stern-Volmer constant KSV with Zn^2+: compound 20 μM, Zn^2+ 2.5 to 40 μM, emission 530 nm
Description: The metal chelation ability of the compounds were assessed by UV-Visible absorbance and fluorescence spectroscopy by metal titration experiments. The small molecules were dissolved in HEPES buffer to make concentration of 20 μM and the metal ion (Zn^2+) was titrated with increasing concentration from 2.5 μM to 40 μM with 2 min of incubation between each addition. The change in absorbance and fluorescence spectra of compound was recorded and analysed for metal-small molecules interaction. The data was plotted in Origin (Pro), Version 2022 and analysed for determination of dissociation constant. The absorbance values were fitted using Benesi-Hildebrand equation to elucidate the binding constant of metals with small molecules.
where, KB is the binding or association constant, and A0 and Aα represent the peak absorbance of small molecules in the absence and presence of the highest concentration of metal ion (40 μM). The reciprocal of KB was taken as the dissociation constant, Kd. The change in fluorescence was fitted using Stern-Volmer equation to determine KSV: […]
where, F0 and F are the fluorescence intensities of small molecules in the absence and presence of metal ion, respectively. KSV is the Stern-Volmer quenching constant and [Q] is the concentration of quencher/enhancer (metal ion in this case).
Fluorescence spectroscopy is a reliable method to probe host-probe interactions, wherein the change in wavelength or intensity of emission spectrum is indicative of the strength of complexation. […] The classical Stern-Volmer equation was used to quantify the quenching and measure the Stern-Volmer constant, KSV wherein a higher value of KSV implies ability of the compound to form strong complexation with the host (Zn^2+). […] Due to the good binding affinity of the small molecules towards Zn, the designed small molecules were anticipated to chelate and interfere tau-Zn interaction.

[2] = Isothermal titration calorimetry of small molecule-Zn interaction; assay type: binding; settings: for ΔG of binding to Zn, ITC / ΔH (enthalpy) of binding to Zn, ITC / −TΔS (entropy) of binding to Zn, ITC: 298 K; for ΔG / ΔH / −TΔS: Table 1, with Zn
Description: ITC measurements were performed using a Malvern MicroCal-PEAQ ITC machine. Solutions of small molecules (compounds 1a, 1b and 1c) of the present disclosure and ZnCl2 were prepared in 100% DMSO. A revolving syringe was used to inject 26 consecutive 1.5 μL aliquots of Zn^2+ into the small molecules solution to ensure a continual mixing. The ITC cell reference power and temperature were set at […] and 25° C., respectively. To guarantee complete equilibration before the next injection, an interval of 150 s was maintained between subsequent measurements. Obtained isotherms were corrected by the subtraction of heat of dilution (buffer and small molecules). By using a single site binding model in the MicroCal PEAQ-ITC analysis software, nonlinear least squares fitting of the binding isotherms was carried out to estimate the thermodynamic parameters and dissociation constant (Kd).
The thermodynamic parameters of the interactions between small molecules and Zn^2+ were determined by ITC study. ZnCl2 solution in the injection syringe was titrated into compound solution in the sample cell. The heat change was measured and plotted as a function of the molar ratio of small molecules and Zn^2+. […] Right panel depicts the integrated binding isotherms as a function of the binary complex at 298 K. Fitting was obtained from the data points with one set of the binding site model). […] The Kd values determined from ITC validate the results obtained from other binding studies discussed vide supra (lower Kd and higher KSV). Both endothermic and exothermic peaks were observed upon binding of 1c and Zn resulting in a net negative ΔH value, and the data was fitted to exothermic one site binding model. For a reaction to be spontaneous, it must be favored by at least one of the factors, enthalpy or entropy.

[3] = target: T2, Zn induced tau LLPS condensates (Homo sapiens, UniProt P10636); assay: DIC microscopy, dissolution of phase separated tau condensates; assay type: biochemical; settings: LLPS induced 10 min with Zn, then compound 15 min; Zn alone 2.26
T2 construct: the full-length tau plasmid construct was transformed into E. coli, BL21 strain; inferred from the Ni-NTA purification; made in house; host or cells: E. coli BL21
Description: (§1) Liquid-liquid phase separation (LLPS) of tau was induced by molecular crowding in LLPS buffer (10 mM HEPES, 100 mM NaCl, 10% PEG 4000 and pH 7.4) and Zn.^32 Tau (10 μM) was suspended in LLPS buffer and added Zn (40 μM) incubate for 10 min to induce LLPS. For inhibition studies the tau in LLPS buffer was treated with small molecules (20 μM) before addition of Zn and for control same volume of vehicle (DMSO) was added. Dissolution samples were prepared by induction of LLPS for 10 min using Zn and followed by addition of small molecules and further incubation of 15 min. The samples were drop-cast (10 μL) on clean glass slides, mount with coverslip and immediately imaged in Olympus FLUOVIEW 3000 microscope in differential interface contrast (DIC) mode with 63× oil immersion objective. The images were acquired in multiple areas and planes to confirm the LLPS formation and its modulation by small molecules. Image analysis was performed by using ImageJ software, plotted normalised droplet size against control and analysed by GraphPad Prism.
(§2) The strong binding interaction of small molecules with Zn and tau encouraged us to evaluate them for modulation of Zn indued LLPS of tau. The ability of small molecules to inhibit tau LLPS and formation of droplets were studied by differential interface contrast (DIC) microscopy (FIG. 4). In the presence of Zn, tau readily undergoes LLPS and formed liquid like droplets within 10 min, as evident from the observed fusion droplets (FIG. 4A and inset). […] The inhibitory effect is in the order of 1c followed by 1b and 1a, which agrees with Zn and tau binding ability of small molecules. The LLPS of tau is through transient weak interactions and we believe that the small molecules with strong multivalent interactions with tau and Zn (chelation) potentially dissolve the phase separated droplets. […] The absorption spectra of 1c in the presence of tau and Zn (independently) and together was recorded. […]

Zn induced tau LLPS = target: T3, Zn induced tau LLPS (Homo sapiens, UniProt P10636); assay: DIC microscopy, inhibition of Zn induced tau LLPS; assay type: biochemical; settings: tau 10 μM, Zn 40 μM, compound 20 μM added before Zn; Zn alone ~1.3
T3 construct: the full-length tau plasmid construct was transformed into E. coli, BL21 strain; inferred from the Ni-NTA purification; made in house; host or cells: E. coli BL21
Description: as §1, §2

tau and Zn = target: T4, tau and Zn (Homo sapiens, UniProt P10636); assay: UV-Visible spectroscopy, preferential binding among tau and Zn; settings: absorption spectra with tau, Zn and both
T4 construct: the full-length tau plasmid construct was transformed into E. coli, BL21 strain; inferred from the Ni-NTA purification; made in house; host or cells: E. coli BL21
Description: as §2, with “droplets. To evaluate the reversal effect of small molecules on phase separated droplets, tau LLPS was induced (10 min) and treated with small molecules for 15 min followed by visualization by DIC imaging. […] The droplet size was reduced to less than control in case of 1c treated samples (˜0.66-fold) indicating its ability to inhibit Zn induced tau LLPS. The modulatory effect of 1c prompted to look for its preferential interaction among tau and Zn.” for “droplets.”

T2 sequence (P10636 1-441 isoform P10636-8): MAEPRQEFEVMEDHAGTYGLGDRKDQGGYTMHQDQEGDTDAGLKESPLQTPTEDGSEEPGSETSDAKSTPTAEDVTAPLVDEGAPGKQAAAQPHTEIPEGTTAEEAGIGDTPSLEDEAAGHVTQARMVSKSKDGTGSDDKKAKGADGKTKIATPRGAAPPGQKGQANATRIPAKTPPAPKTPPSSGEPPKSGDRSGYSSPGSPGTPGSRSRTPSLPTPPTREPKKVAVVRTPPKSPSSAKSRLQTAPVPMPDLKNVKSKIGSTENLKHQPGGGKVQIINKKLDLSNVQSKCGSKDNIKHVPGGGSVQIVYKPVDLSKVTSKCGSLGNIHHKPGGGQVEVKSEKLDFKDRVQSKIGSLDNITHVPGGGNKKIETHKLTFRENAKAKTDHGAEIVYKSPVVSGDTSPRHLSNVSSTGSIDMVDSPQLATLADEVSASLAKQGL
T1 sequence (P10636 1-441 isoform P10636-8): as above
T3 sequence (P10636 1-441 isoform P10636-8): as above
T4 sequence (P10636 1-441 isoform P10636-8): as above

Structure (SMILES) | Stern-Volmer KSV with tau (tau protein) [M⁻¹] | Kd (tau protein) [nM] | Stern-Volmer binding constant (KSV) [1] [× × 10^4] | Stern-Volmer constant KSV with Zn^2+ [1] | ΔG of binding to Zn, ITC [2] [kcal/mol] | ΔH (enthalpy) of binding to Zn, ITC [2] [kcal/mol] | −TΔS (entropy) of binding to Zn, ITC [2] [kcal/mol] | ΔG ([2]; unit not given) | ΔH ([2]; unit not given) | −TΔS ([2]; unit not given) | droplet size (normalized to control), dissolution of condensates [3] [fold] | droplet size (normalized to control), inhibition of LLPS (Zn induced tau LLPS) [fold] | preferential interaction among tau and Zn (tau and Zn) | ΔH (enthalpy) of binding to Zn, ITC ([2]; unit not given) | −TΔS (entropy) of binding to Zn, ITC ([2]; unit not given)
O=C1N[C@@H](Cc2ccc(O)cc2)C(=O)N[C@H]1CCCCN1C(=O)c2cccc3c(N(Cc4ccccn4)Cc4ccccn4)ccc(c23)C1=O [Compound 1b, 6-(bis(pyridin-2-ylmethyl)amino)-2-(4-((2S,5S)-5-(4-hydroxybenzyl)-3,6-dioxopiperazin-2-yl)butyl)-1H-benzo[de]isoquinoline-1,3(2H)-dione] | 160000 | 1740 ± 170 | 1.7 | 1.7×10^4 | -5.78 | -0.551 ± 0.056 | -5.23 | −5.78 | −0.551 | −5.23 | ~1.6 | ~1.12 |  |  | 
O=C1N[C@@H](Cc2c[nH]c3ccccc23)C(=O)N[C@H]1CCCCN1C(=O)c2cccc3c(N(Cc4ccccn4)Cc4ccccn4)ccc(c23)C1=O [Compound 1c, 2-(4-((2S,5S)-5-((1H-indol-3-yl)methyl)-3,6-dioxopiperazin-2-yl)butyl)-6-(bis(pyridin-2-ylmethyl)amino)-1H-benzo[de]isoquinoline-1,3(2H)-dione] | 150000 | 3950 ± 320 | 1.7 | 1.7×10^4 | -6.45 | -0.698 ± 0.223 | -5.75 | −6.45 | −0.693 | −5.75 | ~0.66 | ~1 | preferential interaction of 1c with tau over Zn |  | 
O=C1N[C@@H](Cc2ccccc2)C(=O)N[C@H]1CCCCN1C(=O)c2cccc3c(N(Cc4ccccn4)Cc4ccccn4)ccc(c23)C1=O [Compound 1a, 2-(4-((2S,5S)-5-benzyl-3,6-dioxopiperazin-2-yl)butyl)-6-(bis(pyridin-2-ylmethyl)amino)-1H-benzo[de]isoquinoline-1,3(2H)-dione] | 190000 | 2880 ± 510 | 0.06 | 0.06×10^4 | -3.48 |  |  | −3.48 | −13.1 | 9.59 | ~1.1 | ~1.19 |  | −13.1±0.13 | 9.59

Reference: patent US20260070890A1, “MODULATORS OF TAU LIQUID-LIQUID PHASE SEPARATION AND METHODS THEREOF” (JAWAHARLAL NEHRU CENTRE FOR ADVANCED SCIENTIFIC RESEARCH, priority 2023, published 2026)
